Reference: ChEMBL document CHEMBL3576789, “Origins of the Quinolone Class of Antibacterials: An Expanded "Discovery Story"” (2015)
In brackets after ≈: the same amount, converted by molar mass.

Tests used:
Escherichia coli [1] = assay: Antimicrobial activity against Escherichia coli NIHJ; type: functional
Escherichia coli [2] = assay: Antimicrobial activity against Escherichia coli NIHJ JC2; type: functional
Klebsiella pneumoniae [3] = assay: Antimicrobial activity against Klebsiella pneumoniae 602; type: functional
Klebsiella pneumoniae [4] = assay: Antimicrobial activity against Klebsiella pneumoniae PCI602; type: functional
Proteus mirabilis = assay: Antimicrobial activity against Proteus mirabilis GN2425; type: functional
Proteus vulgaris = assay: Antimicrobial activity against Proteus vulgaris HX19; type: functional
Salmonella typhi = assay: Antimicrobial activity against Salmonella typhi T58; type: functional, Salmonella enterica subsp. enterica serovar Typhi; conditions: Salmonella enterica
Staphylococcus aureus [5] = assay: Antimicrobial activity against Staphylococcus aureus 209P; type: functional
Staphylococcus aureus [6] = assay: Antimicrobial activity against Staphylococcus aureus 209p JC1; type: functional
Pseudomonas aeruginosa [7] = assay: Antimicrobial activity against Pseudomonas aeruginosa 104; type: functional
Pseudomonas aeruginosa [8] = assay: Antimicrobial activity against Pseudomonas aeruginosa TU408; type: functional

SMILES | MIC (Escherichia coli [1]) | MIC (Escherichia coli [2]) | MIC (Klebsiella pneumoniae [3]) | MIC (Klebsiella pneumoniae [4]) | MIC (Proteus mirabilis) | MIC (Proteus vulgaris) | MIC (Salmonella typhi) | MIC (Staphylococcus aureus [5]) | MIC (Staphylococcus aureus [6]) | MIC (Pseudomonas aeruginosa [7]) | MIC (Pseudomonas aeruginosa [8])
CCn1cc(C(=O)O)c(=O)c2ccc(C)nc21 [NALIDIXIC ACID] | 3.13 µg/mL (≈ 13.5 µM) | 6.25 µg/mL (≈ 26.9 µM) | 6.25 µg/mL (≈ 26.9 µM) | 6.25 µg/mL (≈ 26.9 µM) | 12.5 µg/mL (≈ 53.8 µM) | 1.56 µg/mL (≈ 6.72 µM) | 6.25 µg/mL (≈ 26.9 µM) | 100 µg/mL (≈ 431 µM) | > 50 µg/mL | 200 µg/mL (≈ 861 µM) | > 50 µg/mL
CCn1cc(C(=O)O)c(=O)c2ccc(Cl)cc21 | 25 µg/mL (≈ 99.3 µM) | – | 25 µg/mL (≈ 99.3 µM) | – | 12.5 µg/mL (≈ 49.7 µM) | 25 µg/mL (≈ 99.3 µM) | – | 50 µg/mL (≈ 199 µM) | – | 200 µg/mL (≈ 795 µM) | –
CCn1cc(C(=O)O)c(=O)c2ccc(C)cc21 | 6.25 µg/mL (≈ 27 µM) | 6.25 µg/mL (≈ 27 µM) | 25 µg/mL (≈ 108 µM) | 6.25 µg/mL (≈ 27 µM) | 12.5 µg/mL (≈ 54.1 µM) | 12.5 µg/mL (≈ 54.1 µM) | 12.5 µg/mL (≈ 54.1 µM) | 200 µg/mL (≈ 865 µM) | > 50 µg/mL | > 200 µg/mL | > 50 µg/mL
